Reference: US11622556B2, “Re-oiled and hyper-oiled lecithin carrier vehicles” (BIO-UP MIMETIC TECHNOLOGIES, INC., priority 2016, dated 2023)

Experiments:
Sinorhizobium meliloti = assay: Microbial growth in 96-well plate, change in absorbance at 630 nm; type: cell-based; details: for overall potency order of essential oils: essential oils in de-oiled lecithin liposomes with triglyceride
mosquito larvae = type: in vivo; details: liposomal essential oils in pond water

Row | Structure (SMILES) | overall potency order of essential oils (Sinorhizobium meliloti) | activity as a single agent (Sinorhizobium meliloti; liposomes with 0, 20 or 45 wt % triglyceride, particularly notable at 45%) | larvicidal activity order (mosquito larvae) | antimicrobial activity of marker label (Sinorhizobium meliloti; in liposome membrane)
1 | O=CC=Cc1ccccc1 [cinnamaldehyde] | vetiver≈cinnamaldehyde>citronella≈sandalwood≈bayleaf≈patchouli≈rosewood>linalool≈d-limonene | greater activity than citronella | thymol>cinnamaldehyde˜d-limonene>citronella˜eugenol>sandalwood oil˜coriander oil˜lavender oil | 
2 | COc1cc(/C=C/C(=O)CC(=O)/C=C/c2ccc(O)c(OC)c2)ccc1O [diferuloylmethane, reference compound] |  |  |  | no antimicrobial activity
3 | C=CCc1ccc(O)c(OC)c1 [eugenol] |  |  | thymol>cinnamaldehyde˜d-limonene>citronella˜eugenol>sandalwood oil˜coriander oil˜lavender oil | 
4 | C=C(C)[C@H]1CC=C(C)CC1 [d-limonene] | vetiver≈cinnamaldehyde>citronella≈sandalwood≈bayleaf≈patchouli≈rosewood>linalool≈d-limonene |  | thymol>cinnamaldehyde˜d-limonene>citronella˜eugenol>sandalwood oil˜coriander oil˜lavender oil | 
5 | Cc1ccc(C(C)C)c(O)c1 [thymol] |  |  | thymol>cinnamaldehyde˜d-limonene>citronella˜eugenol>sandalwood oil˜coriander oil˜lavender oil | 
